Reference: US11845760B2, “PRMT5 inhibitors” (AMGEN INC., priority 2020, dated 2023)
pIC50: −log10 of the molar value. Read-outs that look alike come from different tables or passages of the source.

How the values were obtained:
[1] = system: HCT116 MTAP null cells; test: HCT116 MTAP null cell line proliferation (CellTiter-Glo cell viability, 6 days); type: cell-based; conditions: HCT116 MTAP null cells, 6 days of treatment, CellTiter-Glo cell viability, read-out: HCT-116 MTAP null IC50
In short: (§1)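 Isogenic HCT116 pair (parent and MTAP double-allele knockout) in RPMI 1640 + 10% FBS, exposed 6 days to compound: 8–9-point 1:3 dilutions from 1 or 10 μM top, or 22-point 1:2 dilutions from 10 or 50 μM top. CellTiter-Glo luminescence; IC50 from sigmoidal fit (Hill −1) or 4-parameter logistic.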

[2] = system: HCT116 WT cells; test: HCT116 WT cell line proliferation (CellTiter-Glo cell viability, 6 days); type: cell-based; conditions: HCT116 WT (parent) cells, 6 days of treatment, CellTiter-Glo cell viability, read-out: HCT-116 WT IC50
In short: as §1

Row | pIC50 ([1]; HCT116-MTAP null, 144 h) | pIC50 ([2]; Homo sapiens, HCT-116, 144 h) | pIC50 [1] | pIC50 [2] | SMILES
1 | 8.30 | 7.40 | – | – | Cn1ncc2c(N)nc3cc(F)c(C(=O)N4CCOC[C@@H]4c4ccc(S(F)(F)(F)(F)F)cc4)cc3c21 [Example 450, (4-amino-7-fluoro-1-methyl-1H-pyrazolo [4,3-c]quinolin-8-yl)((3S)-3-(4-(pentafluoro-lambda~6~-sulfanyl)phenyl)-4-morpholinyl)methanone]
2 | 7.31 | 6.00 | – | – | C[C@H]1COC[C@@H](c2ccc(OC(F)(F)F)cc2F)N1C(=O)c1cc2c3c(c(N)nc2cn1)COC3 (racemic) [Example 328, (4-amino-1,3-dihydrofuro[3,4-c][1,7]naphthyridin-8-yl)((3R,5S)-3-(2-fluoro-4-(trifluoromethoxy)phenyl)-5-methyl-4-morpholinyl)methanone and (4-amino-1,3-dihydrofuro[3,4-c][1,7]naphthyridin-8-yl)((3S,5R)-3-(2-fluoro-4-(trifluoromethoxy)phenyl)-5-methyl-4-morpholinyl)methanone]
3 | 7.85 | 6.33 | – | – | C[C@@H]1COC[C@H](c2ccc(OC(F)(F)F)cc2)N1C(=O)c1ccc2nc(N)c3c(c2c1)COC3 (single isomer, unassigned) [Example 588]
4 | – | – | 7.46 | 6.05 | CC1OCc2c1c(N)nc1ccc(C(=O)N3C(C)COCC3c3ccc(C(F)(F)F)cc3F)cc21 (mixture of isomers) [Example 331, ((3R)-4-amino-3-methyl-1,3-dihydrofuro[3,4-c]quinolin-8-yl)((3R,5S)-3-(2-fluoro-4-(trifluoromethyl)phenyl)-5-methyl-4-morpholinyl)methanone and ((3R)-4-amino-3-methyl-1,3-dihydrofuro[3,4-c]quinolin-8-yl)((3S,5R)-3-(2-fluoro-4-(trifluoromethyl)phenyl)-5-methyl-4-morpholinyl)methanone]
5 | 6.83 | 5.00 | – | – | Nc1nc2cnc(C(=O)N3CCOC[C@@H]3c3c(F)cc(Br)cc3F)cc2c2c1COC2 (single isomer, unassigned) [Example 602]
6 | 6.10 | < 5.00 | – | – | CC1(C)OCc2c1c(N)nc1ccc(C(=O)N3CCOC[C@@H]3c3ccc(OC(F)(F)F)cc3)cc21 [Example 382, (4-amino-3,3-dimethyl-1H-furo[3,4-c]quinolin-8-yl)-[(3S)-3-[4-(trifluoromethoxy)phenyl]morpholin-4-yl]methanone]
7 | 8.22 | 7.08 | – | – | C[C@@H]1COC[C@H](c2ccc(OC(F)F)nn2)N1C(=O)c1cc2c3c(c(N)nc2cc1F)[C@@H](C)OC3 [Example 562, ((3R)-4-amino-7-fluoro-3-methyl-1,3-dihydrofuro[3,4-c]quinolin-8-yl)((3S,5R)-3-(6-(difluoromethoxy)-3-pyridazinyl)-5-methyl-4-morpholinyl)methanone]
8 | 7.26 | 5.60 | – | – | CCOc1ccc([C@H]2COC[C@@H](C)N2C(=O)c2ccc3nc(N)c4c(c3c2)CO[C@@H]4C)nn1 [Example 537, ((3R)-4-amino-3-methyl-1,3-dihydrofuro[3,4-c]quinolin-8-yl)((3S,5R)-3-(6-ethoxy-3-pyridazinyl)-5-methyl-4-morpholinyl)methanone]
9 | 6.67 | < 5.00 | – | – | CCOc1ccc(C2COCCN2C(=O)c2cc3c4c(c(N)nc3cc2F)COC4)nn1 (racemic) [Example 392, (4-amino-7-fluoro-1,3-dihydrofuro[3,4-c]quinolin-8-yl)((3R)-3-(6-ethoxy-3-pyridazinyl)-4-morpholinyl)methanone and (4-amino-7-fluoro-1,3-dihydrofuro[3,4-c]quinolin-8-yl)((3S)-3-(6-ethoxy-3-pyridazinyl)-4-morpholinyl)methanone]
10 | 6.64 | 5.24 | – | – | Nc1nc2cnc(C(=O)N3CCOC[C@@H]3c3ccc(C(F)(F)F)s3)cc2c2c1COC2 (single isomer, unassigned) [Example 617]
11 | 6.01 | < 4.30 | – | – | CCOc1ccc([C@@H]2COCCN2C(=O)c2ccc3nc(N)c4c(c3c2)CO[C@@H]4C)nn1 (racemic) [Example 393, ((3R)-4-amino-3-methyl-1,3-dihydrofuro[3,4-c]quinolin-8-yl)((3R)-3-(6-ethoxy-3-pyridazinyl)-4-morpholinyl)methanone and ((3R)-4-amino-3-methyl-1,3-dihydrofuro[3,4-c]quinolin-8-yl)((3S)-3-(6-ethoxy-3-pyridazinyl)-4-morpholinyl)methanone]
12 | 7.64 | 6.26 | – | – | Cn1ncc2c3cc(C(=O)N4CCOC[C@@H]4c4ccc(S(F)(F)(F)(F)F)cc4)c(Cl)cc3nc(N)c21 [Example 419, (4-amino-7-chloro-3-methyl-3H-pyrazolo[3,4-c]quinolin-8-yl)((3S)-3-(4-(pentafluoro-lambda~6~-sulfanyl)phenyl)-4-morpholinyl)methanone]
13 | 5.49 | < 5.00 | – | – | Nc1nc2cnc(C(=O)N3CCOC[C@H]3c3ccc(C(F)(F)F)s3)cc2c2c1COC2 (single isomer, unassigned) [Example 616]
14 | < 6.00 | < 5.00 | – | – | Nc1nc2cnc(C(=O)N3CCCC[C@H]3c3ccc(C(F)(F)F)cc3)cc2c2c1COC2 (single isomer, unassigned) [Example 486]
15 | < 6.00 | < 5.00 | – | – | Nc1nc2ccc(C(=O)N3CCOC[C@H]3c3ccc(C(F)(F)F)cc3)cc2c2c1COC2 (single isomer, unassigned) [Example 455]
16 | – | – | 6.78 | 5.20 | C[C@@H]1COC[C@H](c2ccc(OC(F)F)c(F)c2)N1C(=O)c1cc2c3c(c(N)nc2cn1)COC3 (racemic) [Example 390, (4-amino-1,3-dihydrofuro[3,4-c][1,7]naphthyridin-8-yl)((3R,5S)-3-(4-(difluoromethoxy)-3-fluorophenyl)-5-methyl-4-morpholinyl)methanone and (4-amino-1,3-dihydrofuro[3,4-c][1,7]naphthyridin-8-yl)((3S,5R)-3-(4-(difluoromethoxy)-3-fluorophenyl)-5-methyl-4-morpholinyl)methanone]
17 | 7.32 | 6.04 | – | – | C[C@@H]1COC[C@H](c2ccc(OC(F)(F)F)cn2)N1C(=O)c1cc2c3c(c(N)nc2cn1)[C@@H](C)OC3 (racemic) [Example 380, ((3R)-4-amino-3-methyl-1,3-dihydrofuro[3,4-c][1,7]naphthyridin-8-yl)((3R,5S)-3-methyl-5-(5-(trifluoromethoxy)-2-pyridinyl)-4-morpholinyl)methanone and ((3R)-4-amino-3-methyl-1,3-dihydrofuro[3,4-c][1,7]naphthyridin-8-yl)((3S,5R)-3-methyl-5-(5-(trifluoromethoxy)-2-pyridinyl)-4-morpholinyl)methanone]
18 | 7.21 | 5.60 | – | – | Nc1nc2cnc(C(=O)N3CCOC[C@@H]3c3ccc(OC(F)(F)F)cc3)cc2c2c1COC2 [Example 506, (4-amino-1,3-dihydrofuro[3,4-c][1,7]naphthyridin-8-yl)-[(3S)-3-[4-(trifluoromethoxy)phenyl]morpholin-4-yl]methanone]
19 | 7.74 | 5.73 | – | – | Cn1ncc2c(N)nc3cc(Cl)c(C(=O)N4CCC(c5ccc(C(F)(F)F)cn5)C4)cc3c21 (racemic) [Example 543, (4-amino-7-chloro-1-methyl-1H-pyrazolo[4,3-c]quinolin-8-yl)((3R)-3-(5-(trifluoromethyl)-2-pyridinyl)-1-pyrrolidinyl)methanone and (4-amino-7-chloro-1-methyl-1H-pyrazolo[4,3-c]quinolin-8-yl)((3S)-3-(5-(trifluoromethyl)-2-pyridinyl)-1-pyrrolidinyl)methanone]
20 | 6.83 | 5.17 | – | – | C[C@H]1COC[C@@H](c2ccc(Cl)nc2)N1C(=O)c1cc2c3c(c(N)nc2cn1)COC3 (racemic) [Example 311, (4-amino-1,3-dihydrofuro[3,4-c][1,7]naphthyridin-8-yl)((3R,5S)-3-(6-chloro-3-pyridinyl)-5-methyl-4-morpholinyl)methanone and (4-amino-1,3-dihydrofuro[3,4-c][1,7]naphthyridin-8-yl)((3S,5R)-3-(6-chloro-3-pyridinyl)-5-methyl-4-morpholinyl)methanone]
21 | 6.24 | < 5.00 | – | – | Nc1nc2cnc(C(=O)N3CCNC[C@@H]3c3ccc(C(F)(F)F)cc3)cc2c2c1COC2 (single isomer, unassigned) [Example 596, (4-amino-1,3-dihydrofuro[3,4-c][1,7]naphthyridin-8-yl)((2S)-2-(4-(trifluoromethyl)phenyl)-1-piperazinyl)methanone or (4-amino-1,3-dihydrofuro[3,4-c][1,7]naphthyridin-8-yl)((2R)-2-(4-(trifluoromethyl)phenyl)-1-piperazinyl)methanone]
22 | 8.15 | 6.84 | – | – | Cn1ncc2c(N)nc3cc(Cl)c(C(=O)N4C[C@@H](CO)[C@H](c5ccc(C(F)(F)F)cc5F)C4)cc3c21 [Example 449, (4-amino-7-chloro-1-methyl-1H-pyrazolo[4,3-c]quinolin-8-yl)((3R,4S)-3-(2-fluoro-4-(trifluoromethyl)phenyl)-4-(hydroxymethyl)-1-pyrrolidinyl)methanone]
23 | < 6.00 | 5.32 | – | – | Nc1nc2ccc(C(=O)N3CCCC[C@@H]3c3ccc(C(F)(F)F)cc3)cc2c2ccsc12 (single isomer, unassigned) [Example 490]
24 | < 6.00 | < 5.00 | – | – | Nc1nc2ncc(C(=O)N3CCOCC3c3ccc(C(F)(F)F)cc3)cc2c2c1COC2 (racemic) [Example 483, rac-(4-amino-1,3-dihydrofuro[3,4-c][1,8]naphthyridin-8-yl)(3-(4-(trifluoromethyl)phenyl)morpholino)methanone]
